# Measured values from patent publication US7795446B2, “Benzimidazole derivatives useful as selective androgen receptor modulators (SARMS)” (priority 2004, dated 2010).
# Test system: ventral prostate and seminal vesicle weights, testosterone propionate-treated castrated male Sprague Dawley rats
# Assay: Ventral Prostate and Seminal Vesicle Weight In Vivo Assay
# Conditions: percent inhibition of testosterone-enhanced prostate weight; immature castrated male rats; test compound usually orally 40 mg/kg (2 mg/day) once daily for five days plus testosterone propionate 2 mg/kg s.c.
# Method: Ventral Prostate and Seminal Vesicle Weight In Vivo Assay
# Immature (approximately 50 g) castrated male Sprague Dawley rats (Charles River) were treated once daily for five days with test compound (usually given orally at 40 mg/kg in a volume of 0.3 mL, in 30% cyclodextrin or 0.5% methylcellulose vehicle) and with testosterone propionate (given subcutaneously by injection at the nape of the neck at 2 mg/kg, in a volume of 0.1 mL in sesame oil). On the sixth day, the rats were euthanized by asphyxiation in carbon dioxide. Ventral prosatates and seminal vesicles were removed and their wet weights determined. Test compound activity was determined as the percent inhibition of testosterone-enhanced tissue weights, with a vehicle-treated control group set to zero percent and a testosterone alone-treated control group set to 100%.
# Representative compounds of the present invention were tested according to the procedure described, with results as listed in Table 7 below. A test compound is listed as “active” if the non weight adjusted prostate weight was ≦40 mg or the % Inhibition prostate weight, body weight adjusted was ≧40%@ 2 mg/day dosage. ID50's, if determined, of ≦15 mg/day also indicated an “active” compound.
row,Compound,Activity
1,"O=[N+]([O-])c1cc2nc(C(O)C(F)(F)F)[nH]c2cc1[N+](=O)[O-] (stereo not shown) [Compound 155, 1-(5,6-Dinitro-1H-benzoimidazol-2-yl-)2,2,2-trifluoro-ethanol]",inactive
2,CSCC(C)(O)c1nc2cc(Cl)c(Cl)cc2n1C (stereo not shown) [Compound 12],active
3,Cn1c(C(C)(O)CSCc2ccccc2)nc2cc(Cl)c(Cl)cc21 (stereo not shown) [Compound 23],active
4,"3,3,3-Trifluoro-2-methoxy-2-phenyl-propionic acid 1-(5,6-dichloro-1H-benzamidazol-2-yl)-2,2,2-trifluoro-1-methyl-ethyl ester [Compound 107]",active
